How the values were obtained:
[1] = tested on: GST-p12_M63I phosphorylation in 293T cells; assay: Kinase inhibition, GST-p12_M63I phosphorylation (PQ/SR); type: cell-based
Procedure: (§1) Glycogen synthase kinase 3 (GSK3) and cyclin-dependent kinase 5 (CDK5) were predicted to phosphorylate Mo-MLV p12 on S61, by the NetPhos 3.1 kinase prediction algorithm. […] These drugs were tested in our biochemical assays for their ability to reduce GST-p12_M63I phosphorylation and chromatin association. In our assays, cells transiently-expressing GST-p12_M63I were cultured in media containing nocodazole overnight, prior to the addition of the kinase inhibitors. […] After removal of the drugs, cells were immediately washed and lysed for glutathione-sepharose bead pull-down assays. The eluates from the beads were analysed by SDS-PAGE followed by sequential staining with PQ and SR dyes to quantify the phosphorylation levels of GST-p12_M63I. LiCl treatment had little effect on GST-p12_M63I phosphorylation (Fig 7A, lane 2). […] To correlate GST-p12_M63I phosphorylation with its ability to interact with chromatin, we quantified the amounts of H2B in the pull-down eluates by immunoblotting. […] The short period of kinase inhibition used in our assays, may have limited the effects observed on GST-p12_M63I phosphorylation.
(§2) GST-p12 proteins were expressed in 293T cells from pCAGGS/GST-derived plasmids by transient transfection using Turbofect (Thermo Fisher Scientific). Approximately 24 h after transfection, cells were changed into fresh media containing either 400 ng/ml nocodazole (Sigma) or 2 μg/ml aphidicolin (Sigma) and incubated overnight at 37°C. The synchronisation of the cell cultures after drug treatment was assessed by propidium iodide staining and cell cycle phase analysis by flow cytometry. Cells to be used in pull down assays were washed and lysed in 20 mM Tris pH 8.0, 300 mM NaCl, 1 mM EDTA, 10% Glycerol, 1% Triton X-100, protease inhibitors (Roche), phosphatase inhibitors (Merck). Lysis was facilitated by passing the lysates through a 19-gauge needle x7 and sonication, x7 pulses, 30 s ON and 30 s OFF, in an ice bath (Decon FS100). […] ProQ diamond and Sypro ruby staining (Thermo Fisher Scientific) of gels was visualised and quantified on a ChemiDoc imaging system (Bio-Rad). […]

[2] = tested on: H2B precipitation with GST-p12_M63I, 293T cells; assay: Kinase inhibition, H2B pull-down with GST-p12_M63I; type: cell-based; conditions: 3.5 h with nocodazole and 10 μM MG132, immunoblot
Procedure: as §1, §2

[3] = tested on: Glycogen synthase kinase 3 (GSK3); conditions: cited from earlier work
GST-p12_WT = assay: SILAC-MS of proteins enriched with GST-p12_WT relative to GST; type: binding, Mo-MLV; conditions: for SDs from the mean: log2(GST-p12_WT, Heavy/GST, Light)
Source text: To test whether GST-p12 was acting like the p12 region of Gag, we used a global proteomic approach based on stable isotope labelling by amino acids in cell culture (SILAC)-mass spectrometry (MS) to look for host proteins that interact with GST-p12 [35, 36]. A schematic diagram of the workflow is illustrated in Fig 4A. Briefly, GST, GST-p12_mut14 and GST-p12_WT were transiently-expressed in 293T cells cultured in light (R0/K0), medium (R6/K4) and heavy (R10/K8) SILAC media, respectively. Next, lysates of nocodazole treated transfected cells were prepared, normalised and used for parallel pull-down assays with glutathione-sepharose beads. The eluates from the beads were then pooled in a 1:1:1 ratio and subjected to LC-MS/MS analysis. The experiment was performed using biological replicates to test reproducibility of the mass-spec hits. The pull-down assays for this experiment were performed using mitotic cell lysates to facilitate identification of any potential chromatin interactions that were previously missed.
After removal of obvious contaminants (e.g. keratin) and non-quantified hits, 948 and 879 proteins were identified in replicates 1 and 2 (R1 and R2) of the experiment respectively (the false discovery rate (FDR) was set at 5%). To select proteins enriched in the heavy-labelled (H) GST-p12_WT sample relative to the light-labelled (L) GST sample, we compared the log2(H/L) silac ratios of the mass-spectrometry hits. When plotted as a frequency distribution, the log2(H/L) ratios of each replicate fitted well to a normal distribution curve (R^2 ≥ 0.98), allowing the mean and standard deviation to be accurately estimated (Fig 4B). In this experiment, contaminants/non-specifically bound cellular proteins were assumed to cluster around the mean of the distribution. […] Twenty one such proteins were identified in R1 and 22 identified in R2 (Fig 4B Venn diagram). […] These proteins were then ranked based on normalised abundance in the group. In mass-spectrometry analysis, larger proteins are in general assigned higher scores. Therefore, to control for protein size, we divided the number of peptide spectral matches identified for each protein with its length and then normalised the values across the group (Fig 4C and 4D). When ranked this way, the clathrin heavy chain (CLTC), clathrin interactor 1 (CLINT1) and NEDD4-like E3 ubiquitin ligase (WWP2) were identified as the top three hits. […] The function of clathrin in MLV infection is unclear. […] Thus, clathrin binding may be relevant to the early stages of MLV replication and should be investigated further.
For SILAC-MS experiments, 293T cells were grown is media containing light (R0K0, ^12C-Arginine and ^12C-Lysine), medium (R6K4, ^13C-Arginine and Lysine-4,4,5,5-d4) or heavy (R10K8, ^13C+^15N-Arginine and ^13C+^15N-Lysine) versions of L-Arginine and L-Lysine amino acids (Pierce) for a minimum of 6 doublings before transient expression of GST-p12 proteins. After performing the glutathione-sepharose pull-down assays equivalent volumes of the beads eluates were pooled and submitted to the Bristol University Proteomics Facility for RP nano-LC-MS/MS analysis. This analysis was performed on an LTQ-Orbitrap Velos mass spectrometer in line with a Dionex Ultimate 3000 nanoHPLC system as described in [53].
Supplementary file ppat.1007117.s005.xlsx: S1 Table Results from the first SILAC-MS analysis. GST, Mo-MLV GST-p12_mut14 or GST-p12_WT were transiently-expressed in 293T cells cultured in light (R0/K0), medium (R6/K4) and heavy (R10/K8) SILAC media, respectively. Mitotic cell lysates were subsequently used for glutathione-sepharose bead pull-down assays. Bead eluates were pooled in a 1:1:1 ratio and then analysed by LC-MS/MS. […] (XLSX) Click here for additional data file.

[4] = tested on: nucleosome binding to immobilised p12 CTD peptides; assay: BLI competition, nucleosome binding to immobilised p12 CTD peptides; conditions: soluble hCBS 100 μM
Procedure: To identify whether p12 binds to the same nucleosomal docking site as the CBS from PFV Gag, we then tested the ability of p12 CTD peptides to block the binding of nucleosomal arrays to hCBS and vice versa (Fig 9E and 9F).
The binding of PFV hCBS and p12 CTD peptides to recombinant H3.3 poly-nucleosomes (Active Motif) was measured using biolayer interferometry on an Octet RED system (Pall ForteBio Corp). The peptides were synthesised with a N-terminal biotin tag and GGGG linker. The Mo-MLV, FeLV and GaLV p12 CTD peptide sequences used are highlighted in bold in Fig 5C. A negative control was included that contained an R66A change in the Mo-MLV p12_M63I CTD peptide. Mo-MLV phos p12_M63I CTD was also synthesised with a phosphorylated S61 residue. The hCBS (positive control) sequence used corresponds to the CBS of PFV Gag ([…]). The biotinylated peptides were loaded onto streptavidin biosensors (Pall ForteBio Corp) at 0.5 μg/ml for 120 s in 10 mM HEPES pH 7.5, 150 mM NaCl, 0.005% (v/v) Tween 20. Following a buffer wash, the biosensors were incubated with serially-diluted nucleosome preparations (~0.5–250 nM) for 900–5400 s to measure association. Experiments were performed at 25°C and sample plates were agitated at 1000 rpm. Equilibrium binding amplitudes were determined by exponential least squares curve fitting of the association phase. The estimated binding amplitudes were then plotted against approximate nucleosome concentrations on GraphPad Prism 7. Equilibrium binding constant (Kd) and maximum specific binding (Bmax) were calculated by fitting the data to a non-linear regression model. Experiments were performed at least in duplicate and the data pooled for fitting. For competition assays, soluble non-biotin tagged peptides were added to the nucleosomal arrays at 100 μM to inhibit nucleosome binding prior to recording BLI measurements with biotinylated peptide immobilised on sensor probes. The non-biotin tagged peptide sequences were: hCBS—[…]; hCBS_L539A/R540A - […]; p12_WT—[…]; p12_R66A - […].

Row | Molecule | Normalised (PSMs/Length) (GST-p12_WT; Replicate 1) | PSMs (GST-p12_WT; Replicate 1) | PSMs/Length (GST-p12_WT; Replicate 1) | SDs from the mean (GST-p12_WT; Replicate 1) | Normalised (PSMs/Length) (GST-p12_WT; Replicate 2) | PSMs (GST-p12_WT; Replicate 2) | PSMs/Length (GST-p12_WT; Replicate 2) | SDs from the mean (GST-p12_WT; Replicate 2) | further results
1 | [Cl-].[Li+] [LiCl] |  |  |  |  |  |  |  |  | effect on GST-p12_M63I phosphorylation ([1]; LiCl 40 mM, 3.5 h with nocodazole and 10 μM MG132): little effect; effect on chromatin pull down ([2]; LiCl 40 mM): no significant effect; inhibition of GSK3 [3]: shown to inhibit GSK3
2 | CC[C@H](CO)Nc1nc(NCc2ccccc2)c2ncn(C(C)C)c2n1 [roscovitine] |  |  |  |  |  |  |  |  | reduction of GST-p12_M63I phosphorylation by kinase inhibitor ([1]; 3.5 h with nocodazole and 10 μM MG132, LiCl 40 mM, roscovitine 75 μM, kenpaullone 40 μM): ~ 1.5 fold; reduction of H2B precipitation by kinase inhibitor ([2]; roscovitine 75 μM, kenpaullone 40 μM): ~ 1.5 fold
3 | Clathrin heavy chain 1: clathrin heavy chain, Q00610 | 49.383 | 90 | 0.05373 | 7.774 | 51.3165 | 96 | 0.05731 | 7.772 | 
4 | Inner centromere protein: cDNA FLJ31633, highly similar to this protein (fragment), B3KPD3 | 2.444 | 2 | 0.00266 | 6.525 | 1.191 | 1 | 0.00133 | 13.4521 | 
5 | NEDD4-like E3 ubiquitin-protein ligase WWP2: O00308 | 9.508 | 9 | 0.01034 |  | 9.262 | 9 | 0.01034 | 11.5377 | 
6 | NQGGYNLRPRTYQP [soluble hCBS, soluble non-biotin tagged hCBS peptide] |  |  |  |  |  |  |  |  | competition with binding of immobilised FeLV to nucleosomal arrays [4]: could compete with the binding; competition with binding of immobilised GaLV to nucleosomal arrays [4]: could compete with the binding; competition with binding of immobilised Mo-MLV p12_M63I to nucleosomal arrays [4]: could compete with the binding; competition with binding of immobilised Mo-MLV p12_WT to nucleosomal arrays [4]: could compete with the binding
7 | Phosphatidylinositol-4-phosphate 3-kinase C2domain-containing alpha polypeptide: cDNA FLJ53905, highly similar to this protein, B4DG55 | 2.815 | 4 | 0.003063 |  | 6.17 | 9 | 0.006891 | 6.685 | 
8 | Protein transport protein Sec16A: F1T0I1 | 1.969 | 5 | 0.002142 | 3.112 | 1.918 | 5 | 0.002142 | 2.575 | 

Reference: publication PMC6021111, “Murine leukemia virus p12 tethers the capsid-containing pre-integration complex to chromatin by binding directly to host nucleosomes in mitosis” (PLoS Pathogens, 2018)
